Measurements published in US8614227B2, “Salt and solvates of a tetrahydroisoquinoline derivative” (Spinifex Pharmaceuticals Pty Ltd, priority 2010, dated 2013).
Like-named read-outs stand apart in the source and are kept apart here.

Experiments:
[1] = dog, in vivo, po, 10 mg/kg
Description: (§1) The study was designed to compare the PK profiles of the following four forms of Compound 1 administered as single oral capsules in fasted state. […] There was a washout period of 4 days between dosing. The blood samples were collected from each animal at predetermined times on the study Days 1, 4, 8 and 11. The plasma was analyzed for Compound 1 by a validated HPLC-MS/MS assay.
(§2) Descriptive PK parameters were determined by standard model independent methods (Gibaldi and Perrier, 1982) based on the individual plasma concentration-time data. Plasma concentrations were rounded to 3 significant figures. Plasma samples with concentrations below the quantifiable assay limit (BQL<2.00 ng/mL) were assigned values of zero for mean calculations. For PK calculations, BQL was set to zero from the pre-dose time up to the time of the first quantifiable concentration and thereafter was set as missing. Nominal time points were used for all calculations. • Cmax is the observed maximum plasma concentration after dosing. • Tmax is the time to reach Cmax. • T1/2 is apparent half-life calculated by ln(2)/λ where λ is the rate constant fix the log-linear portion of the terminal phase. A minimum of three values in the post-distribution phase of the plasma concentration-time curve is required for calculation of X. • AUC(0-T) is the area under the plasma concentration-time curve from time zero to the time of the last measurable plasma concentration determined using the linear trapezoidal rule. • AUC(0-inf) is the area under the plasma concentration-time curve from time zero to infinity. It is calculated by summing AUC(0-T) and the extrapolated area from the T to infinity.
(§3) PK analyses were performed by noncompartmental analysis using model 200 in WinNonlin Professional 6.1 (Pharsight Corp., Mountain View, Calif.).

pKa of Compound 1 = type: physicochemical
in vivo = details: male, beagle, dog, po, 10 mg/kg
Description: as §1, §2, §3

[2] = Storage of amine salts at elevated humidity (deliquescence); type: physicochemical
Description: The tromethamine salt deliquesced at 25° C./94% RH. As a result, neither of these amine salts were suitable for pharmaceutical development.

[3] = Gravimetric vapour sorption (GVS); type: physicochemical
Description: Sorption isotherms were obtained using a Hiden IGASorp moisture sorption analyzer, controlled by CFRSorp software. The sample temperature was maintained at 25° C. by a Huber re-circulating water bath. The humidity was controlled by mixing streams of dry and wet nitrogen, with a total flow rate of 250 mL·min^−1. The relative humidity was measured by a calibrated Vaisala RH probe (dynamic range of 0-95% RH), located near the sample. The weight change, (mass relaxation) of the sample as a function of % RH was constantly monitored by the microbalance (accuracy ±0.001 mg).
Typically 10-20 mg of sample was placed in a tared mesh stainless steel basket under ambient conditions. The sample was loaded and unloaded at 40% RH and 25° C. (typical room conditions).
A moisture sorption isotherm was performed as outlined below (2 scans giving 1 complete cycle). The standard isotherm was performed at 25° C. at 10% RH intervals over a 0-90% RH range.
The software uses a least squares minimization procedure together with a model of the mass relaxation, to predict an asymptotic value. The measured mass relaxation value must be within 5% of that predicted by the software, before the next RH value is selected. The minimum equilibration time was set to 1 hour and the maximum to 4 hours.
The sample was recovered after completion of the isotherm and re-analyzed by XRPD.

## COc1ccc2c(c1OCc1ccccc1)C[C@@H](C(=O)O)N(C(=O)C(c1ccccc1)c1ccccc1)C2 [Compound 1, (S)-2-(diphenylacetyl)-1,2,3,4-tetrahydro-6-methoxy-5-(phenylmethoxy)-3-isoquinoline carboxylic acid]
[1]
  Plasma concentration of Compound 1, 0.25 h: BQL
  Plasma concentration of Compound 1, 0.5 h: BQL
  Plasma concentration of Compound 1, 0.75 h: BQL
  Plasma concentration of Compound 1, 12 h: BQL
  Plasma concentration of Compound 1, 24 h: BQL
  Plasma concentration of Compound 1, Predose: BQL
[1]; male, beagle
  Plasma concentration of Compound 1, Predose: 0 µg/mL
[1]; male, beagle, 24 h
  Plasma concentration of Compound 1, 24 h: 0 µg/mL
pKa of Compound 1
  pKa: ~3.86
In vivo; Mean AUC(0-inf)
  AUC(0-inf): 0.68 ± 0.412 µg·h/mL
In vivo; Mean harmonic T1/2
  half-life: 2.11 ± 0.115 h
In vivo; T1/2
  half-life: 2.18 h
In vivo; Tmax
  Tmax: 1 h
In vivo; mean Cmax
  Cmax: 0.294 ± 0.238 µg/mL
In vivo; median Tmax
  Tmax: 2 h

## COc1ccc2c(c1OCc1ccccc1)C[C@@H](C(=O)O)N(C(=O)C(c1ccccc1)c1ccccc1)C2.NC(CO)(CO)CO [tromethamine salt]
[2]
  behaviour on storage at 25° C./94% RH: deliquesced

## COc1ccc2c(c1OCc1ccccc1)C[C@@H](C(=O)[O-])N(C(=O)C(c1ccccc1)c1ccccc1)C2.[Na+] [material from acetonitrile (MeCN)]
[3]; from 0% RH to 40% RH
  GVS weight gained by 40% RH: 6%
[3]; from 40% RH to 90% RH, 25° C.
  GVS weight change when taken up to 90% RH: about 17%
[3]; from 90% RH to 0% RH
  GVS total weight drop: 19%
[3]; taken down to 0% RH, 25° C.
  GVS weight at 0% RH: −2%
